The source of these data is PMC10821064, “Mode of Antibacterial Action of Tomatidine C3-Diastereoisomers” (Molecules, 2024).

Molecules are shown by their SMILES.

The target of this assay is T1, ATP synthase subunit c (Escherichia coli, UniProt P68699).
T1 construct: gene atpE; native ATP synthase in membrane vesicles of E. coli ATCC 25922; with whole ATP synthase complex
Briefly: inhibition of NADH-driven ATP synthesis in E. coli membrane vesicles, luminescence (ATPlite), Dixon-type Ki. The following applies: read-out: Ki (μM) In Vitro. The assay is classed as biochemical. In general terms: In ATP-based viability assays light output follows the ATP content of the culture.

T1 sequence (P68699 whole entry): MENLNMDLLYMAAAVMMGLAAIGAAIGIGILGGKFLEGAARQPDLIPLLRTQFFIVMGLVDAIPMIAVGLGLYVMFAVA

For orientation: Ki means the dissociation constant of the complex between target and ligand, obtained from inhibition or displacement. As for `C[C@H]1CCC2(NC1)O[C@H]1C[C@H]3[C@@H]4CCC5C[C@H](NCCN)CC[C@]5(C)[C@H]4CC[C@]3(C)[C@H]1[C@@H]2C` (some centres unmarked) [TM-03], the Ki turned out to be 3.5 µM. Under `C[C@H]1CCC2(NC1)O[C@H]1C[C@H]3[C@@H]4CCC5C[C@@H](NCCN)CC[C@]5(C)[C@H]4CC[C@]3(C)[C@H]1[C@@H]2C` (some centres unmarked) [TM-02] stands 1.1 µM.
